Usually IC50 stands for the concentration that gives 50% inhibition.

The test deals with recombinant human HPK1 (Homo sapiens (Human), UniProt Q92918). Kind of test: HPK1 kinase assay (ADP-Glo). The class given is biochemical. The settings on record: 25 μM ATP, MBP substrate. The method in brief: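 Activity was read as ADP formed, detected by ADP-Glo luminescence after the reaction of 5 ng recombinant human HPK1 with MBP and ATP (stocks 0.5 μg/μl and 25 μM) for 40 min at 30 °C. Buffer was Tris pH 7.5 with MgCl2, BSA and DTT, with compound in 0.5% DMSO. IC50 came from inhibition curves.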
recombinant human HPK1, sequence (Q92918 whole entry): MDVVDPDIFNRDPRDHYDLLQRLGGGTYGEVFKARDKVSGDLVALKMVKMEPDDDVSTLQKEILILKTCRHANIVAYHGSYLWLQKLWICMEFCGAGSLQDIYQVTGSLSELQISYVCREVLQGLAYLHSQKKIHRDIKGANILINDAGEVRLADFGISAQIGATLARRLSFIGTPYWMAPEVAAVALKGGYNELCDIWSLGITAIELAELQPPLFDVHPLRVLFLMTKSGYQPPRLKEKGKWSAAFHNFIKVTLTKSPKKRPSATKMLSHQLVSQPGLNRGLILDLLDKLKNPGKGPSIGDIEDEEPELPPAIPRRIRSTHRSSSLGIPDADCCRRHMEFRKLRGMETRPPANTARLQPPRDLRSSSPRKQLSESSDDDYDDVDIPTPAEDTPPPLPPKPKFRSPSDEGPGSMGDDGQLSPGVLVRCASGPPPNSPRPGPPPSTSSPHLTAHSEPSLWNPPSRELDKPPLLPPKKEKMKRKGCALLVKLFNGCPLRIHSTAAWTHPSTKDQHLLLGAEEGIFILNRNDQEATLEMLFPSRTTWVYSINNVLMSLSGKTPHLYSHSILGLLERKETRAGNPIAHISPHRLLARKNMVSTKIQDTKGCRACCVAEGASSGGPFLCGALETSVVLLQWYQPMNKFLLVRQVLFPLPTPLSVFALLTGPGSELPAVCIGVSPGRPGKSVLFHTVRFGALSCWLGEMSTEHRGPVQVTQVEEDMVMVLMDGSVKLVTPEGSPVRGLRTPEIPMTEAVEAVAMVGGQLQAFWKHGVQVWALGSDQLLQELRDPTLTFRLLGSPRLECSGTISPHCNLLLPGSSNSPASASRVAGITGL
(ADP-Glo first removes unused ATP, then detects ADP through luciferase.)
Turning to `CN1CCN(c2c(F)c(Cl)c(-c3ccn4nc(NC(=O)[C@@H]5C[C@@H]5F)cc4c3)c3cn[nH]c23)C1=O` [Example 623, (1S,2S)-N-(5-(5-chloro-6-fluoro-7-(3-methyl-2-oxoimidazolidin-1-yl)-1H-indazol-4-yl)pyrazolo[1,5-a]pyridin-2-yl)-2-fluorocyclopropane-1-carboxamide], the IC50 was less than 0.1 µM.

Take `O=C(O)c1c(F)c(Cl)c(-c2ccn3nc(NC(=O)[C@@H]4C[C@@H]4F)cc3c2)c2cn[nH]c12` [Example 551, 5-chloro-6-fluoro-4-(2-((1S,2S)-2-fluorocyclopropane-1-carboxamido)pyrazolo[1,5-a]pyridin-5-yl)-1H-indazole-7-carboxylic acid]: the concentration for half-maximal inhibition (IC50) is more than 1 µM.

As to `O=C(Nc1cn2cc(-c3c(Cl)c(F)c(N(C(=O)C(F)(F)F)C4CC4)c4[nH]ncc34)ccc2n1)[C@@H]1C[C@@H]1F` [Example 368, (1S,2S)-N-(6-(5-chloro-7-(N-cyclopropyl-2,2,2-trifluoroacetamido)-6-fluoro-1H-indazol-4-yl)imidazo[1,2-a]pyridin-2-yl)-2-fluorocyclopropane-1-carboxamide], the IC50 was less than 0.1 µM.

Take `CC(NC(=O)C(F)F)c1c(F)c(Cl)c(-c2ccn3nc(NC(=O)[C@@H]4C[C@@H]4F)cc3c2)c2cn[nH]c12` (stereo partly drawn) [Example 665, (1S,2S)-N-(5-(5-chloro-7-(1-(2,2-difluoroacetamido)ethyl)-6-fluoro-1H-indazol-4-yl)pyrazolo[1,5-a]pyridin-2-yl)-2-fluorocyclopropane-1-carboxamide]: the IC50 was less than 0.1 µM.

In the case of `Cc1c(F)c(OCCN(C)C(N)=O)c2[nH]ncc2c1-c1ccn2nc(NC(=O)[C@@H]3C[C@@H]3F)cc2c1` [Example 539, (1S,2S)-2-fluoro-N-(5-(6-fluoro-5-methyl-7-(2-(1-methylureido)ethoxy)-1H-indazol-4-yl)pyrazolo[1,5-a]pyridin-2-yl)cyclopropane-1-carboxamide], the IC50 was less than 0.1 µM.

In the case of `Cc1c(F)c(Cl)c2[nH]nc(Cl)c2c1-c1cc(Cl)c2nc(NC(=O)[C@@H]3C[C@@H]3F)sc2c1` [Example 54, (1S,2S)-N-(4-chloro-6-(3,7-dichloro-6-fluoro-5-methyl-1H-indazol-4-yl)benzo[d]thiazol-2-yl)-2-fluorocyclopropane-1-carboxamide], the IC50 is more than 1 µM.

`CCc1c(F)c(F)c2[nH]ncc2c1-c1ccc2nc(NC(=O)[C@@H]3C[C@@H]3F)sc2c1` [Example 106, (1S,2S)-N-(6-(5-ethyl-6,7-difluoro-1H-indazol-4-yl)benzo[d]thiazol-2-yl)-2-fluorocyclopropane-1-carboxamide]: the IC50 was less than 0.1 µM.

Regarding `Cc1c(F)cc2[nH]ncc2c1-c1ccc2nc(NC(=O)[C@@H]3C[C@@H]3F)cn2c1` [Example 250, (1S,2S)-2-fluoro-N-(6-(6-fluoro-5-methyl-1H-indazol-4-yl)imidazo[1,2-a]pyridin-2-yl)cyclopropane-1-carboxamide], the 50% inhibitory concentration (IC50) is less than 0.1 µM.

Consider `CCOc1cc(C)c(-c2ccc3nc(NC(=O)[C@@H]4C[C@@H]4F)sc3c2)c2cn[nH]c12` [Example 101, (1S,2S)-N-(6-(7-ethoxy-5-methyl-1H-indazol-4-yl)benzo[d]thiazol-2-yl)-2-fluorocyclopropane-1-carboxamide], for which the concentration for half-maximal inhibition (IC50) was less than 0.1 µM.

With `CN(C)C(=O)c1c(F)cc2[nH]ncc2c1-c1ccn2nc(NC(=O)[C@@H]3C[C@@H]3F)cc2c1` [Example 605, 6-fluoro-4-(2-((1S,2S)-2-fluorocyclopropane-1-carboxamido)pyrazolo[1,5-a]pyridin-5-yl)-N,N-dimethyl-1H-indazole-5-carboxamide], the 50% inhibitory concentration (IC50) is more than 1 µM.

Take `O=C(Nc1cn2cc(-c3c(C(F)F)c(F)cc4[nH]ncc34)ccc2n1)[C@@H]1C[C@@H]1F` [Example 253, (1S,2S)-N-(6-(5-(difluoromethyl)-6-fluoro-1H-indazol-4-yl)imidazo[1,2-a]pyridin-2-yl)-2-fluorocyclopropane-1-carboxamide]: the 50% inhibitory concentration (IC50) is less than 0.1 µM.

In the case of `CCNc1c(F)c(Cl)c(-c2ccc3nc(NC(=O)[C@@H]4C[C@@H]4F)cn3c2)c2cn[nH]c12` [Example 280, (1S,2S)-N-(6-(5-chloro-7-(ethylamino)-6-fluoro-1H-indazol-4-yl)imidazo[1,2-a]pyridin-2-yl)-2-fluorocyclopropane-1-carboxamide], the half-inhibitory concentration (IC50) was less than 0.1 µM.

Turning to `CCN(CC)c1c(F)c(Cl)c(-c2ccc3nc(NC(=O)[C@@H]4C[C@@H]4F)sc3n2)c2cn[nH]c12` [Example 154, (1S,2S)-N-(5-(5-chloro-7-(diethylamino)-6-fluoro-1H-indazol-4-yl)thiazolo[5,4-b]pyridin-2-yl)-2-fluorocyclopropane-1-carboxamide], the IC50 was less than 0.1 µM.

With `Nc1c(F)cc2[nH]ncc2c1-c1ccc2nc(NC(=O)C3CC3)cn2c1` [Example 227, N-(6-(5-amino-6-fluoro-1H-indazol-4-yl)imidazo[1,2-a]pyridin-2-yl)cyclopropanecarboxamide], the concentration for half-maximal inhibition (IC50) is more than 1 µM.

Turning to `CCOc1c(F)c(Cl)c(-c2ccc3nc(NC(=O)[C@@H]4C[C@@H]4F)cn3c2)c2cn[nH]c12` [Example 275, (1S,2S)-N-(6-(5-chloro-7-ethoxy-6-fluoro-1H-indazol-4-yl)imidazo[1,2-a]pyridin-2-yl)-2-fluorocyclopropane-1-carboxamide], the IC50 was less than 0.1 µM.

Regarding `Cc1c(F)c(S(C)(=O)=O)c2[nH]ncc2c1-c1ccn2nc(NC(=O)[C@@H]3C[C@@H]3F)cc2c1` [Example 489, (1S,2S)-2-fluoro-N-(5-(6-fluoro-5-methyl-7-(methylsulfonyl)-1H-indazol-4-yl)pyrazolo[1,5-a]pyridin-2-yl)cyclopropane-1-carboxamide], the concentration for half-maximal inhibition (IC50) is less than 0.1 µM.

For the compound `O=C(Nc1nc2ccc(-c3c(C4CC4)c(F)cc4[nH]ncc34)nc2s1)[C@@H]1C[C@@H]1F` [Example 158, (1S,2S)-N-(5-(5-cyclopropyl-6-fluoro-1H-indazol-4-yl)thiazolo[5,4-b]pyridin-2-yl)-2-fluorocyclopropane-1-carboxamide], the 50% inhibitory concentration (IC50) was in the range of 0.101 to 0.5 µM.

With `CN(c1ncc(F)cn1)c1c(F)c(Cl)c(-c2ccn3nc(NC(=O)[C@@H]4C[C@@H]4F)cc3c2)c2cn[nH]c12` [Example 613, (1S,2S)-N-(5-(5-chloro-6-fluoro-7-((5-fluoropyrimidin-2-yl)(methyl)amino)-1H-indazol-4-yl)pyrazolo[1,5-a]pyridin-2-yl)-2-fluorocyclopropane-1-carboxamide], the IC50 was less than 0.1 µM.

Regarding `CCN(C)c1c(F)c(Cl)c(-c2ccc3nc(NC(=O)[C@@H]4C[C@@H]4F)sc3c2)c2cn[nH]c12` [Example 133, (1S,2S)-N-(6-(5-chloro-7-(ethyl(methyl)amino)-6-fluoro-1H-indazol-4-yl)benzo[d]thiazol-2-yl)-2-fluorocyclopropane-1-carboxamide], the 50% inhibitory concentration (IC50) is less than 0.1 µM.

Turning to `N#Cc1ccc2[nH]ncc2c1-c1ccn2nc(NC(=O)[C@@H]3C[C@@H]3F)cc2c1` [Example 456, (1S,2S)-N-(5-(5-cyano-1H-indazol-4-yl)pyrazolo[1,5-a]pyridin-2-yl)-2-fluorocyclopropane-1-carboxamide], the IC50 is 0.501 to 1 µM.

For the compound `O=C(Nc1nc2ccc(-c3c(Br)c(F)cc4[nH]ncc34)nc2s1)[C@@H]1C[C@@H]1F` [Example 160, (1S,2S)-N-(5-(5-bromo-6-fluoro-1H-indazol-4-yl)thiazolo[5,4-b]pyridin-2-yl)-2-fluorocyclopropane-1-carboxamide], the half-inhibitory concentration (IC50) was less than 0.1 µM.

For the compound `O=C(Nc1cn2cc(-c3c(Cl)c(F)c(N4CCOCC4)c4[nH]ncc34)ccc2n1)[C@@H]1C[C@@H]1F` [Example 279, (1S,2S)-N-(6-(5-chloro-6-fluoro-7-morpholino-1H-indazol-4-yl)imidazo[1,2-a]pyridin-2-yl)-2-fluorocyclopropane-1-carboxamide], the half-inhibitory concentration (IC50) was less than 0.1 µM.

In the case of `CN(CC(F)(F)F)C(=O)c1c(F)c(Cl)c(-c2ccc3nc(NC(=O)[C@@H]4C[C@@H]4F)cn3c2)c2cn[nH]c12` [Example 347, 5-chloro-6-fluoro-4-(2-((1S,2S)-2-fluorocyclopropane-1-carboxamido)imidazo[1,2-a]pyridin-6-yl)-N-methyl-N-(2,2,2-trifluoroethyl)-1H-indazole-7-carboxamide], the IC50 was less than 0.1 µM.

As to `O=C(Nc1cc2cc(-c3c(Cl)c(F)c(OCC4CCCO4)c4[nH]ncc34)ccn2n1)[C@@H]1C[C@@H]1F` (stereo partly drawn) [Example 507, (1S,2S)-N-(5-(5-chloro-6-fluoro-7-((tetrahydrofuran-2-yl)methoxy)-1H-indazol-4-yl)pyrazolo[1,5-a]pyridin-2-yl)-2-fluorocyclopropane-1-carboxamide], the IC50 is less than 0.1 µM.

Regarding `CN1CCN(c2c(F)c(Cl)c(-c3ccc4nc(NC(=O)[C@@H]5C[C@@H]5F)sc4c3)c3cn[nH]c23)CC1` [Example 75, (1S,2S)-N-(6-(5-chloro-6-fluoro-7-(4-methylpiperazin-1-yl)-1H-indazol-4-yl)benzo[d]thiazol-2-yl)-2-fluorocyclopropane-1-carboxamide], the half-inhibitory concentration (IC50) lay within 0.101 to 0.5 µM.

For the compound `CN(CC1CNC1)c1c(F)c(Cl)c(-c2ccc3nc(NC(=O)[C@@H]4C[C@@H]4F)sc3c2)c2cn[nH]c12` [Example 94, (1S,2S)-N-(6-(7-((azetidin-3-ylmethyl)(methyl)amino)-5-chloro-6-fluoro-1H-indazol-4-yl)benzo[d]thiazol-2-yl)-2-fluorocyclopropanecarboxamide], the IC50 is less than 0.1 µM.

As for `CN(C)C(=O)c1c(F)cc(-c2ccc3nc(NC(=O)[C@@H]4C[C@@H]4F)cn3c2)c2cn[nH]c12` [Example 354, 6-fluoro-4-(2-((1S,2S)-2-fluorocyclopropane-1-carboxamido)imidazo[1,2-a]pyridin-6-yl)-N,N-dimethyl-1H-indazole-7-carboxamide], the IC50 was more than 1 µM.

For `N#Cc1ccc2[nH]ncc2c1-c1ccc2nc(NC(=O)C3CC3)cn2c1` [Example 232, N-(6-(5-cyano-1H-indazol-4-yl)imidazo[1,2-a]pyridin-2-yl)cyclopropanecarboxamide], the IC50 is less than 0.1 µM.

Values taken from patent publication US11649255B2, “Indazoles as hematopoietic progenitor kinase 1 (HPK1) inhibitors and methods using same” (1st Biotherapeutics, Inc., priority 2020, dated 2023).
